Laboratory results taken from PubChem BioAssay (NCI).
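Assay format: 96-well plates, 48-hour exposure. The concentration for full growth arrest is given as TGI.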

Columns and labels:
Experiment in all cases: NCI anticancer screen, dose series, 48 h
MDA-MB-231 breast = system: MDA-MB-231 breast
RPMI-8226 leukemia = system: RPMI-8226 leukemia
SF-295 CNS = system: SF-295 CNS
NCI-H226 lung = system: NCI-H226 lung
NCI-H460 lung = system: NCI-H460 lung
HOP-62 NSCLC = system: HOP-62 NSCLC
SF-268 CNS = system: SF-268 CNS
SK-MEL-28 melanoma = system: SK-MEL-28 melanoma
CAKI-1 renal = system: CAKI-1 renal
COLO 205 colon = system: COLO 205 colon
BT-549 breast = system: BT-549 breast
HL-60(TB) leukemia = system: HL-60(TB) leukemia
A549 NSCLC = system: A549 NSCLC
OVCAR-4 ovarian = system: OVCAR-4 ovarian
HCC-2998 colon = system: HCC-2998 colon
SNB-75 CNS = system: SNB-75 CNS
A498 renal = system: A498 renal
SR leukemia = system: SR leukemia
K-562 leukemia = system: K-562 leukemia
HOP-92 NSCLC = system: HOP-92 NSCLC
SK-OV-3 ovarian = system: SK-OV-3 ovarian
OVCAR-3 ovarian = system: OVCAR-3 ovarian
SK-MEL-5 melanoma = system: SK-MEL-5 melanoma
OVCAR-8 ovarian = system: OVCAR-8 ovarian
M14 melanoma = system: M14 melanoma
NCI-H522 lung = system: NCI-H522 lung
TK-10 renal = system: TK-10 renal
OVCAR-5 ovarian = system: OVCAR-5 ovarian
MOLT-4 leukemia = system: MOLT-4 leukemia
CCRF-CEM leukemia = system: CCRF-CEM leukemia
T-47D breast = system: T-47D breast
DU-145 prostate = system: DU-145 prostate
RXF 393 renal = system: RXF 393 renal
NCI/ADR-RES ovarian = system: NCI/ADR-RES ovarian
EKVX NSCLC = system: EKVX NSCLC
HS 578T breast = system: HS 578T breast
MDA-MB-435 = system: MDA-MB-435
PC-3 prostate = system: PC-3 prostate
MALME-3M melanoma = system: MALME-3M melanoma
786-0 renal = system: 786-0 renal
ACHN renal = system: ACHN renal
HCT-116 colon = system: HCT-116 colon
U251 CNS = system: U251 CNS
UACC-62 melanoma = system: UACC-62 melanoma
MCF7 breast = system: MCF7 breast
SN12C renal = system: SN12C renal
UO-31 renal = system: UO-31 renal
SNB-19 CNS = system: SNB-19 CNS
SK-MEL-2 melanoma = system: SK-MEL-2 melanoma
HCT-15 colon = system: HCT-15 colon
SF-539 CNS = system: SF-539 CNS
NCI-H23 lung = system: NCI-H23 lung
SW-620 colon = system: SW-620 colon
LOX IMVI melanoma = system: LOX IMVI melanoma
MDA-N = system: MDA-N
HT29 colon = system: HT29 colon
UACC-257 melanoma = system: UACC-257 melanoma
KM12 colon = system: KM12 colon
IGROV1 ovarian = system: IGROV1 ovarian

`COc1ccc(C(=O)/C=C2\C(=O)Nc3ccc(Br)cc32)cc1` was tested, and the TGI (MDA-MB-231 breast) was 15.5 µM, the TGI (RPMI-8226 leukemia) was over 23.8 µM and the TGI (SF-295 CNS) was 30.6 µM. For the same compound, the TGI (NCI-H226 lung) was 28.6 µM, the TGI (NCI-H460 lung) was 26.7 µM and the TGI (HOP-62 NSCLC) was 37.9 µM. It also gave a TGI (SF-268 CNS) of 47.4 µM, a TGI (SK-MEL-28 melanoma) of 29 µM and a TGI (CAKI-1 renal) of 21.4 µM. It also gave a TGI (COLO 205 colon) of 4.56 µM, a TGI (BT-549 breast) of 13.8 µM and a TGI (HL-60(TB) leukemia) of 6.37 µM. For the same compound, the TGI (A549 NSCLC) was over 51.2 µM, the TGI (OVCAR-4 ovarian) was 32.1 µM and the TGI (HCC-2998 colon) was 12.3 µM. For the same compound, the TGI (SNB-75 CNS) was 27.8 µM, the TGI (A498 renal) was 33.7 µM and the TGI (SR leukemia) was over 21.2 µM. For the same compound, the TGI (K-562 leukemia) was over 100 µM, the TGI (HOP-92 NSCLC) was 8.39 µM and the TGI (SK-OV-3 ovarian) was 29.6 µM. The TGI (OVCAR-3 ovarian) was 11.2 µM, the TGI (SK-MEL-5 melanoma) was over 50.4 µM and the TGI (OVCAR-8 ovarian) was 4.7 µM. The TGI (M14 melanoma) was over 48.3 µM, the TGI (NCI-H522 lung) was 13.4 µM and the TGI (TK-10 renal) was 3.32 µM. It also gave a TGI (OVCAR-5 ovarian) of 46.1 µM, a TGI (MOLT-4 leukemia) of over 21.9 µM and a TGI (CCRF-CEM leukemia) of 32.2 µM. The TGI (T-47D breast) was 26.3 µM, the TGI (DU-145 prostate) was 19.9 µM and the TGI (RXF 393 renal) was 5.08 µM. For the same compound, the TGI (NCI/ADR-RES ovarian) was 3.95 µM, the TGI (EKVX NSCLC) was 29.1 µM and the TGI (HS 578T breast) was 50.3 µM. For the same compound, the TGI (MDA-MB-435) was 27.8 µM, the TGI (PC-3 prostate) was 23.1 µM and the TGI (MALME-3M melanoma) was 34.6 µM. The TGI (786-0 renal) was 3.74 µM, the TGI (ACHN renal) was 3.4 µM and the TGI (HCT-116 colon) was 8.7 µM. The TGI (U251 CNS) was 34.2 µM, the TGI (UACC-62 melanoma) was 29 µM and the TGI (MCF7 breast) was 21.1 µM. For the same compound, the TGI (SN12C renal) was 6.62 µM, the TGI (UO-31 renal) was 5.05 µM and the TGI (SNB-19 CNS) was 36.2 µM. It also gave a TGI (SK-MEL-2 melanoma) of 37.4 µM, a TGI (HCT-15 colon) of 4.86 µM and a TGI (SF-539 CNS) of 25.7 µM. It also gave a TGI (NCI-H23 lung) of 16.2 µM, a TGI (SW-620 colon) of 7.83 µM and a TGI (LOX IMVI melanoma) of 4.27 µM. It also gave a TGI (MDA-N) of 16.7 µM, a TGI (HT29 colon) of 3.28 µM and a TGI (UACC-257 melanoma) of 25.9 µM. It also gave a TGI (KM12 colon) of 9.16 µM and a TGI (IGROV1 ovarian) of 11.4 µM.

In the case of `COC(=O)CC1C(C)(C)C(=O)C2CC3=C4CC(=O)OC(c5ccoc5)C4(C)CCC3C1(C)C2=O` (configuration not stated), the TGI (MDA-MB-231 breast) is reported as over 100 µM, the TGI (RPMI-8226 leukemia) is reported as over 100 µM and the TGI (SF-295 CNS) is reported as over 100 µM. For the same compound, the TGI (NCI-H226 lung) was over 100 µM, the TGI (NCI-H460 lung) was over 100 µM and the TGI (HOP-62 NSCLC) was over 100 µM. It also gave a TGI (SF-268 CNS) of over 100 µM, a TGI (SK-MEL-28 melanoma) of over 100 µM and a TGI (CAKI-1 renal) of over 100 µM. It also gave a TGI (COLO 205 colon) of over 100 µM, a TGI (BT-549 breast) of over 100 µM and a TGI (HL-60(TB) leukemia) of over 100 µM. For the same compound, the TGI (A549 NSCLC) was over 100 µM, the TGI (OVCAR-4 ovarian) was over 100 µM and the TGI (HCC-2998 colon) was over 100 µM. For the same compound, the TGI (SNB-75 CNS) was over 100 µM, the TGI (A498 renal) was over 100 µM and the TGI (SR leukemia) was over 100 µM. It also gave a TGI (K-562 leukemia) of over 100 µM, a TGI (HOP-92 NSCLC) of over 100 µM and a TGI (SK-OV-3 ovarian) of over 100 µM. It also gave a TGI (OVCAR-3 ovarian) of over 100 µM, a TGI (SK-MEL-5 melanoma) of over 100 µM and a TGI (OVCAR-8 ovarian) of over 100 µM. For the same compound, the TGI (M14 melanoma) was over 100 µM, the TGI (NCI-H522 lung) was over 100 µM and the TGI (TK-10 renal) was over 100 µM. The TGI (OVCAR-5 ovarian) was over 100 µM, the TGI (MOLT-4 leukemia) was over 100 µM and the TGI (CCRF-CEM leukemia) was over 100 µM. The TGI (T-47D breast) was over 100 µM, the TGI (DU-145 prostate) was over 100 µM and the TGI (RXF 393 renal) was over 100 µM. It also gave a TGI (NCI/ADR-RES ovarian) of over 100 µM, a TGI (EKVX NSCLC) of over 100 µM and a TGI (HS 578T breast) of over 100 µM. The TGI (MDA-MB-435) was over 100 µM, the TGI (PC-3 prostate) was over 100 µM and the TGI (MALME-3M melanoma) was over 100 µM. It also gave a TGI (786-0 renal) of over 100 µM, a TGI (ACHN renal) of over 100 µM and a TGI (HCT-116 colon) of over 100 µM. For the same compound, the TGI (U251 CNS) was over 100 µM, the TGI (UACC-62 melanoma) was over 100 µM and the TGI (MCF7 breast) was over 100 µM. It also gave a TGI (SN12C renal) of over 100 µM, a TGI (SNB-19 CNS) of over 100 µM and a TGI (SK-MEL-2 melanoma) of over 100 µM. It also gave a TGI (HCT-15 colon) of over 100 µM, a TGI (SF-539 CNS) of over 100 µM and a TGI (NCI-H23 lung) of over 100 µM. For the same compound, the TGI (SW-620 colon) was over 100 µM, the TGI (LOX IMVI melanoma) was over 100 µM and the TGI (MDA-N) was over 100 µM. The TGI (HT29 colon) was over 100 µM, the TGI (UACC-257 melanoma) was over 100 µM and the TGI (KM12 colon) was over 100 µM. It also gave a TGI (IGROV1 ovarian) of over 100 µM.
